According to ChEMBL document CHEMBL3508693 (2016):
Blank lines part the entries; values can stand above or below the compound they belong to.

Columns and labels:
[1] = % of radioactivity recovered as M6 from M4 in urine following oral administration of [14C] aliskiren hemifumarate at 100 mg.Kg-1 level in rat; format: ADME, organism-based, Albino HAN:WIST; conditions: in vivo
[2] = % of radioactivity recovered as M6 from M4 in urine following intravenous administration of [14C] aliskiren hemifumarate at 10 mg.Kg-1 level in rat; format: ADME, organism-based, Albino HAN:WIST; conditions: in vivo
[3] = % of radioactivity recovered as M6 from M4 in faeces following oral administration of [14C] aliskiren hemifumarate at 100 mg.Kg-1 level in rat; format: ADME, organism-based, Albino HAN:WIST, Feces; conditions: in vivo
[4] = % aliskiren recovered as M6 from M4 in hydrolysed following single intravenous administration of 10 mg.Kg-1 [14C] aliskiren hemifumarate in male rat; format: ADME, organism-based, HAN:WIST(SPF), Bile; conditions: in vivo
[5] = % aliskiren recovered as metabolite M6 in plasma following 10 day repeated oral administration of [14C] aliskiren hemifumarate at 100 mg.Kg-1 level studied in rat; format: ADME, organism-based, Albino HAN:WIST; conditions: in vivo, 240 h
[6] = % aliskiren recovered as M6 from M4 in urine following single intravenous administration of 10 mg.Kg-1 [14C] aliskiren hemifumarate in male rat; format: ADME, organism-based, HAN:WIST(SPF); conditions: in vivo
[7] = % aliskiren recovered as M6 from M4 of receiver rat following duodenal infusion of radioactivity through bile from donor rat treated with single intravenous administration of 10 mg.Kg-1 [14C] aliskiren hemifumarate; format: ADME, organism-based, HAN:WIST(SPF); conditions: in vivo
[8] = % of radioactivity recovered as M6 from M4 in plasma following intravenous administration of [14C] aliskiren hemifumarate at 10 mg.Kg-1 level in rat; format: ADME, organism-based, Albino HAN:WIST; conditions: in vivo
[9] = % of radioactivity recovered as M6 from M4 in plasma following oral administration of [14C] aliskiren hemifumarate at 100 mg.Kg-1 level in rat; format: ADME, organism-based, Albino HAN:WIST; conditions: in vivo
[10] = % aliskiren recovered as metabolite M6 in faeces following 10 day repeated oral administration of [14C] aliskiren hemifumarate at 100 mg.Kg-1 level studied in rat; format: ADME, organism-based, Albino HAN:WIST, Feces; conditions: in vivo, 240 h
[11] = % aliskiren hemifumarate recovered as M6 from M4 in urine following single oral dose of 300 mg [14C]SPP100 studied in healthy men; format: ADME, organism-based; conditions: human, in vivo, at 300 mg
[12] = % aliskiren recovered as M6 from M4 in bile following single intravenous administration of 10 mg.Kg-1 [14C] aliskiren hemifumarate in male rat; format: ADME, organism-based, HAN:WIST(SPF); conditions: in vivo
[13] = % aliskiren recovered as metabolite M6 in urine following 10 day repeated oral administration of [14C] aliskiren hemifumarate at 100 mg.Kg-1 level studied in rat; format: ADME, organism-based, Albino HAN:WIST; conditions: in vivo, 240 h
[14] = % aliskiren hemifumarate recovered as M6 from M4 in urine and faeces following single oral dose of 300 mg [14C]SPP100 studied in healthy men; format: ADME, organism-based, Urine/Feces; conditions: human, in vivo, at 300 mg
[15] = % aliskiren hemifumarate recovered as M6 from M4 in faeces following single oral dose of 300 mg [14C]SPP100 studied in healthy men; format: ADME, organism-based, Feces; conditions: human, in vivo
[16] = % of radioactivity recovered as M6 from M4 in faeces following intravenous administration of [14C] aliskiren hemifumarate at 10 mg.Kg-1 level in rat; format: ADME, organism-based, Albino HAN:WIST, Feces; conditions: in vivo
[17] = % aliskiren recovered as metabolite M12 in faeces following 10 day repeated oral administration of [14C] aliskiren hemifumarate at 100 mg.Kg-1 level studied in rat; format: ADME, organism-based, Albino HAN:WIST, Feces; conditions: in vivo, 240 h
[18] = % aliskiren hemifumarate recovered as M12 in faeces following single oral dose of 300 mg [14C]SPP100 studied in healthy men; format: ADME, organism-based, Feces; conditions: human, in vivo, at 300 mg
[19] = % aliskiren recovered as metabolite M12 in urine following 10 day repeated oral administration of [14C] aliskiren hemifumarate at 100 mg.Kg-1 level studied in rat; format: ADME, organism-based, Albino HAN:WIST; conditions: in vivo, 240 h
[20] = % of radioactivity recovered as M12 in urine following oral administration of [14C] aliskiren hemifumarate at 100 mg.Kg-1 level in rat; format: ADME, organism-based, Albino HAN:WIST; conditions: in vivo
[21] = % of radioactivity recovered as M12 in faeces following oral administration of [14C] aliskiren hemifumarate at 100 mg.Kg-1 level in rat; format: ADME, organism-based, Albino HAN:WIST, Feces; conditions: in vivo
[22] = % of radioactivity recovered as M12 in faeces following intravenous administration of [14C] aliskiren hemifumarate at 10 mg.Kg-1 level in rat; format: ADME, organism-based, Albino HAN:WIST, Feces; conditions: in vivo
[23] = % of radioactivity recovered as M12 in plasma following oral administration of [14C] aliskiren hemifumarate at 100 mg.Kg-1 level in rat; format: ADME, organism-based, Albino HAN:WIST; conditions: in vivo
[24] = % of radioactivity recovered as M12 in plasma following intravenous administration of [14C] aliskiren hemifumarate at 10 mg.Kg-1 level in rat; format: ADME, organism-based, Albino HAN:WIST; conditions: in vivo
[25] = % aliskiren hemifumarate recovered as M12 in urine following single oral dose of 300 mg [14C]SPP100 studied in healthy men; format: ADME, organism-based; conditions: human, in vivo
[26] = % aliskiren hemifumarate recovered as M12 in urine and faeces following single oral dose of 300 mg [14C]SPP100 studied in healthy men; format: ADME, organism-based, Urine/Feces; conditions: human, in vivo, at 300 mg
[27] = % aliskiren recovered as metabolite M12 in plasma following 10 day repeated oral administration of [14C] aliskiren hemifumarate at 100 mg.Kg-1 level studied in rat; format: ADME, organism-based, Albino HAN:WIST; conditions: in vivo, 240 h
[28] = % of radioactivity recovered as M12 in urine following intravenous administration of [14C] aliskiren hemifumarate at 10 mg.Kg-1 level in rat; format: ADME, organism-based, Albino HAN:WIST; conditions: in vivo

Compound recovery [1]: <= 2%
Compound recovery [4]: OUTCOME = Not detected
Compound recovery [6]: 3.2%
Compound recovery [7]: 8.9%
Compound recovery [8]: <= 2%
Compound recovery [9]: > 2%
Compound recovery [11]: < 0.1%
Compound recovery [12]: 5%
Compound recovery [14]: < 0.1%
Compound recovery [15]: OUTCOME = Not detected
SMILES: COc1ccc(C[C@@H](C[C@H](N)[C@@H](O)C[C@H](C(=O)NCC(C)(C)C(N)=O)C(C)C)C(C)C)cc1O[C@@H]1O[C@H](CO)[C@@H](O)[C@H](O)[C@H]1O
Compound recovery [2]: OUTCOME = Not detected or not investigated
Compound recovery [3]: OUTCOME = Not detected or not investigated
Compound recovery [5]: OUTCOME = Observed, VALUE = Minor amounts
Compound recovery [10]: OUTCOME = Observed, VALUE = Minor amounts
Compound recovery [13]: OUTCOME = Observed, VALUE = Minor amounts
Compound recovery [16]: OUTCOME = Not detected or not investigated

Compound recovery [18]: < 1%
Compound recovery [19]: OUTCOME = Not detected
Compound recovery [21]: <= 2%
Compound recovery [25]: OUTCOME = Not detected
Compound recovery [26]: < 1%
Compound recovery [27]: OUTCOME = Not detected
SMILES: COCCCOc1cc(C[C@@H](C[C@H](NC(C)=O)[C@@H](O)C[C@H](C(=O)NCC(C)(C)C(N)=O)C(C)C)C(C)C)ccc1OC
Compound recovery [17]: OUTCOME = Observed, VALUE = Measurable quantities
Compound recovery [20]: OUTCOME = Not detected or not investigated
Compound recovery [22]: OUTCOME = Not detected or not investigated
Compound recovery [23]: OUTCOME = Not detected or not investigated
Compound recovery [24]: OUTCOME = Not detected or not investigated
Compound recovery [28]: OUTCOME = Not detected or not investigated
